Measured values: ChEMBL document CHEMBL3124792, “Discovery and preclinical characterization of the cyclopropylindolobenzazepine BMS-791325, a potent allosteric inhibitor of the hepatitis C virus NS5B polymerase” (J Med Chem, 2014)
≈ marks a conversion by molar mass, not a printed value.

Key:
[1] = Cytotoxicity against human HuH7 cells by Alamar blue assay; assay type: cell-based; conditions: Huh-7 cells
[2] = Plasma concentration in rat at 5 mg/kg, iv after 4 hrs; assay type: ADME, organism-based; set-up: dose 5 mg/kg, route intravenous
Hepatitis C virus [3] = assay: Antiviral activity against Hepatitis C virus Con1 genotype 1b infected in human HuH7 cells after 3 days by FRET assay; assay type: functional, organism-based, Hepacivirus hominis; conditions: isolate Con1, Huh-7, 72 h
[4] = Plasma concentration in rat at 10 mg/kg, po after 4 hrs; assay type: ADME, organism-based; set-up: dose 10 mg/kg, route oral
[5] = Drug uptake in rat liver at 5 mg/kg, iv after 4 hrs; assay type: ADME, organism-based; set-up: dose 5 mg/kg, route intravenous; conditions: read-out: Drug uptake
Liver microsome [6] = conditions: rat, microsomes
Liver microsome [7] = conditions: human, microsomes
[8] = target: T1, Nuclear receptor subfamily 1 group I member 2 (Homo sapiens, UniProt O75469); assay: Transactivation of human PXR expressed in human HepG2 cells by luciferase reporter gene assay; assay type: cell-based
T1 sequence (O75469 whole entry): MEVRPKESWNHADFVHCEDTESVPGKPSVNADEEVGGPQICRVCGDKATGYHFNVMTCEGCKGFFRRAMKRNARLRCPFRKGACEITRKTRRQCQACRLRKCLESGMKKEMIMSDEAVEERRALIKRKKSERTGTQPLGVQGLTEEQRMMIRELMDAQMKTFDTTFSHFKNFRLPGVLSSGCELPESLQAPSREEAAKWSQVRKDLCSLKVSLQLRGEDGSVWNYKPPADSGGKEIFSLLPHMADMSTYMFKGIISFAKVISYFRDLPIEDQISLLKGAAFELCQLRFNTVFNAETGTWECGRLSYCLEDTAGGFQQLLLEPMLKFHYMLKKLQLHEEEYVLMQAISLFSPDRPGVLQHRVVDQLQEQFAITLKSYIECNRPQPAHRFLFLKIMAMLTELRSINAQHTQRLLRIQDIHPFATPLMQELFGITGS

[9] = Permeability of the compound at pH 7.4 by PAMPA; assay type: physicochemical; conditions: read-out: permeability
[10] = Drug uptake in rat liver at 10 mg/kg, po after 4 hrs; assay type: ADME, organism-based; set-up: dose 10 mg/kg, route oral; conditions: read-out: Drug uptake
[11] = AUC (0 to 4 hrs) in rat at 5 mg/kg, iv; assay type: ADME, organism-based; set-up: time < 4 hr, dose 5 mg/kg, route intravenous; conditions: plasma
Hepatitis C virus [12] = assay: Antiviral activity against Hepatitis C virus H77c genotype 1a infected in human HuH7 cells after 3 days by FRET assay; assay type: functional, organism-based, Hepacivirus hominis; conditions: genotype 1a H77, Huh-7, 72 h
[13] = Plasma clearance in rat at 5 mg/kg, iv; assay type: ADME, organism-based; set-up: dose 5 mg/kg, route intravenous
[14] = AUC (0 to 4 hrs) in rat at 10 mg/kg, po; assay type: ADME, organism-based; set-up: time < 4 hr, dose 10 mg/kg, route oral; conditions: plasma
[15] = Solubility of the compound in amorphous form in phosphate buffer at pH 6.5; assay type: physicochemical
Hepatitis C virus [16] = assay: Antiviral activity against Hepatitis C virus Con1 genotype 1b infected in human HuH7 cells after 3 days by FRET assay in presence of 40% human serum; assay type: functional, organism-based, Hepacivirus hominis; conditions: isolate Con1, Huh-7, 72 h
[17] = Inhibition of HCV Con1 genotype 1b recombinant wild-type NS5B polymerase-mediated incorporation of radiolabeled nucleotides by scintillation proximity assay; set-up: species or system Hepatitis C virus (isolate Con1)
CYP2D6 = CYP2D6 (Homo sapiens, UniProt P10635); assay: Inhibition of CYP2D6 (unknown origin)
Chain of CYP2D6 (P10635 whole entry): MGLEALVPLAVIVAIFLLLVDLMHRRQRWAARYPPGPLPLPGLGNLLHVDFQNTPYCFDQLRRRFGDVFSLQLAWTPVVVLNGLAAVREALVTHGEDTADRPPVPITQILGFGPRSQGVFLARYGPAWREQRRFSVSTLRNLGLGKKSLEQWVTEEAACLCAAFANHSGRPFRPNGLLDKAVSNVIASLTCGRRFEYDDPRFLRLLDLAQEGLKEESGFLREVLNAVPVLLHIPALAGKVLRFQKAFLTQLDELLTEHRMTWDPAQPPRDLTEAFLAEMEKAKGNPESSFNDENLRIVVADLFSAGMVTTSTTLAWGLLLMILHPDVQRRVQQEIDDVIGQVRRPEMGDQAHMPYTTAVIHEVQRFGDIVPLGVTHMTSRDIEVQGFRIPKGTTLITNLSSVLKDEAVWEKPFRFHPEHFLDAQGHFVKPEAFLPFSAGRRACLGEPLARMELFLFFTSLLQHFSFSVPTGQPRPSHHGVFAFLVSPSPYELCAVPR

[18] = Inhibition of Hepatitis C virus genotype 1a NS5B; set-up: species or system Hepatitis C virus subtype 1a
[19] = Half life in human liver microsomes; assay type: ADME
[20] = Half life in rat at 5 mg/kg, iv; conditions: in vivo
[21] = target: T2, Voltage-gated inwardly rectifying potassium channel KCNH2 (Homo sapiens, UniProt Q12809); assay: Inhibition of human ERG by patch-clamp assay
T2 sequence (Q12809 whole entry): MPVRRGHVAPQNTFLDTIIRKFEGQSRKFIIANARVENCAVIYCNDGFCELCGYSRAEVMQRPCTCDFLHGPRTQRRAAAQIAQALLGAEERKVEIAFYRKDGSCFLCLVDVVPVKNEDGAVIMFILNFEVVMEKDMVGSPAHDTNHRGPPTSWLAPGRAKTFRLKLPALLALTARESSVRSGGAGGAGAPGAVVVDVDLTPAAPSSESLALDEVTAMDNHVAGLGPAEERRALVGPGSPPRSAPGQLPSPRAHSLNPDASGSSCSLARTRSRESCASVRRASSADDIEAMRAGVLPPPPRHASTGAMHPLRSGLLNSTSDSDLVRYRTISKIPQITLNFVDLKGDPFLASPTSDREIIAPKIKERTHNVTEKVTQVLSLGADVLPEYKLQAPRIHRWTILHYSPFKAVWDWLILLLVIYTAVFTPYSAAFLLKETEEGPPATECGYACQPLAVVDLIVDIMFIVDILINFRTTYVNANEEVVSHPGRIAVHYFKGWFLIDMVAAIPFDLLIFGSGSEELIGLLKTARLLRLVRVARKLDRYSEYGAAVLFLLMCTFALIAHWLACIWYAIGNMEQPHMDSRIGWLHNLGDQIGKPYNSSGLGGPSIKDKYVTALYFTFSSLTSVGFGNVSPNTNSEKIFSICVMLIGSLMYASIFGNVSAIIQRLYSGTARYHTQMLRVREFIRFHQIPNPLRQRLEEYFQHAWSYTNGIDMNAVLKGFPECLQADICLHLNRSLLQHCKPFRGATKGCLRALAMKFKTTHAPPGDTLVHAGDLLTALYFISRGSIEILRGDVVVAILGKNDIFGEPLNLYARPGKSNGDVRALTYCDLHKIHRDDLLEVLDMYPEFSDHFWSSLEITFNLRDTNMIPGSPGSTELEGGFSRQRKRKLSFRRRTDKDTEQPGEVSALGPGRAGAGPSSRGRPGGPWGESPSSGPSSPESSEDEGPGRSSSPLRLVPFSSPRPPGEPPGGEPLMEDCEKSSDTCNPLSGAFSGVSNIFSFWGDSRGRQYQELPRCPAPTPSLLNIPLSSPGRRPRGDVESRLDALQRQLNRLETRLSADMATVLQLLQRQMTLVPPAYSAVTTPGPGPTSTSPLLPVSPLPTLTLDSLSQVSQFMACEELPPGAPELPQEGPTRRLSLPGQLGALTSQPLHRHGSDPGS

[22] = Inhibition of Hepatitis C virus genotype 1b NS5B; set-up: species or system Hepatitis C virus subtype 1b
[23] = Half life in cynomolgus monkey liver microsomes; assay type: ADME, Macaca fascicularis, Microsome
[24] = Half life in rat liver microsomes; assay type: ADME
Rattus norvegicus = assay: AUC (0 to infinity) in rat at 5 mg/kg, iv; assay type: ADME, organism-based, Plasma; set-up: time infinity, dose 5 mg/kg, route intravenous; conditions: in vivo
[25] = Cmax in rat at 5 mg/kg, iv; assay type: ADME, organism-based; set-up: dose 5 mg/kg, route intravenous; conditions: in vivo
CYP2C19 = CYP2C19 (Homo sapiens, UniProt P33261); assay: Inhibition of CYP2C19 (unknown origin)
Chain of CYP2C19 (P33261 whole entry): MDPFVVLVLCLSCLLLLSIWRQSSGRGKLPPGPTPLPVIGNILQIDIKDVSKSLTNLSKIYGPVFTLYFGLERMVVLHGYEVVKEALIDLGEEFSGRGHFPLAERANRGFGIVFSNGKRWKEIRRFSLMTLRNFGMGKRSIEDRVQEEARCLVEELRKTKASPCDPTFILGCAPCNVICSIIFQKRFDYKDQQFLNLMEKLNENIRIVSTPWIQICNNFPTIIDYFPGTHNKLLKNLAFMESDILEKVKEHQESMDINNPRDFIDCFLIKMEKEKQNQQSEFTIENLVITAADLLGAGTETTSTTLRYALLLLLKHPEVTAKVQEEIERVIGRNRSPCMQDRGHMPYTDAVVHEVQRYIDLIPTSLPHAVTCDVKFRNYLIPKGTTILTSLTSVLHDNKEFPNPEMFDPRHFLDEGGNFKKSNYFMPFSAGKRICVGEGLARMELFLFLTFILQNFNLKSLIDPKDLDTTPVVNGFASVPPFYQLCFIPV

[26] = Inhibition of Hepatitis C virus genotype 3a NS5B; set-up: species or system Hepatitis C virus subtype 3a
[27] = Inhibition of Hepatitis C virus genotype 5a NS5B; set-up: species or system Hepatitis C virus subtype 5a
[28] = target: T2, Voltage-gated inwardly rectifying potassium channel KCNH2; assay: Inhibition of human ERG by fluorescence-based thallium flux assay
[29] = system: unidentified influenza virus; assay: Antiviral activity against Influenza virus; assay type: functional, organism-based
[30] = Inhibition of human phosphodiesterase 4 by functional assay
Cytochrome P450 3A4 = Cytochrome P450 3A4 (Homo sapiens, UniProt P08684); assay: Inhibition of CYP3A4 (unknown origin); assay type: ADME
Chain of Cytochrome P450 3A4 (P08684 whole entry): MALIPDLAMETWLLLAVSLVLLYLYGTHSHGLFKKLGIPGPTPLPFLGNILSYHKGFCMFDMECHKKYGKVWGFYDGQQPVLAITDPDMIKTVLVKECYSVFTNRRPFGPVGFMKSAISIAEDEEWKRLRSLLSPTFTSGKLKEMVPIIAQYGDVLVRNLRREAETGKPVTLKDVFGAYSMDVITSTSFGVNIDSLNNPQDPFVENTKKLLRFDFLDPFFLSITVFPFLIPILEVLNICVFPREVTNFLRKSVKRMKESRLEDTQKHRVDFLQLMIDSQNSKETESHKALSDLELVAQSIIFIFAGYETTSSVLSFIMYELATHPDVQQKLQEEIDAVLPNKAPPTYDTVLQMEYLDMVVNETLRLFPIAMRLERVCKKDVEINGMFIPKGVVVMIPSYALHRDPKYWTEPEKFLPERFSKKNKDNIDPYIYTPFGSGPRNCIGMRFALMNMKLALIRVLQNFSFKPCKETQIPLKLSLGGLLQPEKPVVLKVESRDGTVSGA

Homo sapiens = organism: Homo sapiens; assay: Inhibition of human phosphodiesterase 4 at 10 uM relative to control
[31] = Inhibition of Hepatitis C virus genotype 4a NS5B; set-up: species or system Hepatitis C virus subtype 4a
Hepatitis C virus [32] = assay: Antiviral activity against Hepatitis C virus genotype 2a by cell-based assay; assay type: functional, organism-based, Hepacivirus hominis
CYP2C9 = CYP2C9 (Homo sapiens, UniProt P11712); assay: Inhibition of CYP2C9 (unknown origin)
Chain of CYP2C9 (P11712 whole entry): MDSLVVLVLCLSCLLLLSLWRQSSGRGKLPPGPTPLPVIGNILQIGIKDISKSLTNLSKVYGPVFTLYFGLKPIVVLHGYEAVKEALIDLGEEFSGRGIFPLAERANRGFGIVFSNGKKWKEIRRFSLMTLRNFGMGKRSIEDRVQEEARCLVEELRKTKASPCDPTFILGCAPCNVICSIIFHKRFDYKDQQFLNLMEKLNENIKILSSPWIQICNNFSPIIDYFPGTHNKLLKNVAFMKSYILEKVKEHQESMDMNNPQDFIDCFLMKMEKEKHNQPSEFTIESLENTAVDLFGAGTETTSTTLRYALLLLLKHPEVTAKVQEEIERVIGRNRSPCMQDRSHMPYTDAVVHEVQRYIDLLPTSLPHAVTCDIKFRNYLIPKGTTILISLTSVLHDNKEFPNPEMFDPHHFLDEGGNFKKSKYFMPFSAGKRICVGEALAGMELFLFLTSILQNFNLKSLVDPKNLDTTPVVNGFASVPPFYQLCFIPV

[33] = Half life in dog liver microsomes; assay type: ADME, Canis lupus familiaris
Coxsackievirus = assay: Antiviral activity against Coxsackievirus; assay type: functional, organism-based
Coronaviridae = assay: Antiviral activity against Coronavirus; assay type: functional, organism-based
Enterovirus = assay: Antiviral activity against Rhinovirus; assay type: functional, organism-based
Enterovirus C = assay: Antiviral activity against Poliovirus; assay type: functional, organism-based
in vivo = conditions: rat, po, 10 mg/kg
[34] = Protein binding in human serum; assay type: ADME, cell-free; conditions: read-out: PB (converted)
[35] = system: Human immunodeficiency virus; assay: Antiviral activity against Human immunodeficiency virus; assay type: functional, organism-based; conditions: Human immunodeficiency virus 1
[36] = Aqueous solubility of the compound at pH 6.5; conditions: buffer
PXR (NR1I2) = target: T3, PXR (NR1I2) (Homo sapiens, UniProt O75469); assay: Transactivation of human PXR expressed in human HepG2 cells at 5.56 uM by luciferase reporter gene assay relative to control; assay type: cell-based; conditions: HepG2 cells that express human PXR, read-out: %max
T3 sequence (O75469 whole entry): T1 sequence (O75469 whole entry)

[37] = Half life in rat at 10 mg/kg, po; conditions: in vivo
Hepatitis C virus [38] = assay: Antiviral activity against Hepatitis C virus genotype 1a by cell-based assay; assay type: functional, organism-based, Hepacivirus hominis; conditions: subtype 1a
CYP1A2 = CYP1A2 (Homo sapiens, UniProt P05177); assay: Inhibition of CYP1A2 (unknown origin)
Chain of CYP1A2 (P05177 whole entry): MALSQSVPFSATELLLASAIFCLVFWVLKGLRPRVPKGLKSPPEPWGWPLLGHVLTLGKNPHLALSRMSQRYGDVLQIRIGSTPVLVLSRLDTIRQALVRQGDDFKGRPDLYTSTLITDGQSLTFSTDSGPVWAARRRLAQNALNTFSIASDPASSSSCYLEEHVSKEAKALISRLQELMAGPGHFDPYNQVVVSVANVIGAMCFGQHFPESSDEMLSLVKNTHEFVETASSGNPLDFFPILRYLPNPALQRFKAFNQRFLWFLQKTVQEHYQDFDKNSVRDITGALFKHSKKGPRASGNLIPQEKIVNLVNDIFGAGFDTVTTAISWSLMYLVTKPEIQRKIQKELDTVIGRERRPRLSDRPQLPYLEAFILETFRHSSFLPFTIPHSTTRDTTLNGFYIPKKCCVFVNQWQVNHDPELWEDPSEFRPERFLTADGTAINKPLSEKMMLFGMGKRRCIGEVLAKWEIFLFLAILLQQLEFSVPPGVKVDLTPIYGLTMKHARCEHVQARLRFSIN

[39] = system: Bovine viral diarrhea virus 1; assay: Antiviral activity against Bovine viral diarrhea virus; assay type: functional, organism-based; conditions: Bovine viral diarrhea virus isolates and strains
[40] = Cmax in rat at 10 mg/kg, po; assay type: ADME, organism-based; set-up: dose 10 mg/kg, route oral; conditions: in vivo
[41] = Aqueous solubility of the compound at pH 2.2; conditions: buffer
[42] = Aqueous solubility of the compound at pH 7.8; conditions: buffer
[43] = Volume of distribution in rat at 5 mg/kg, iv; conditions: in vivo
[44] = AUC (0 to infinity) in rat at 10 mg/kg, po; assay type: ADME, organism-based; set-up: time infinity, dose 10 mg/kg, route oral; conditions: plasma
[45] = Tmax in rat at 10 mg/kg, po; assay type: ADME, organism-based; set-up: dose 10 mg/kg, route oral; conditions: in vivo

COc1ccc2c(c1)C1CC1(C(=O)N1CC(C)(O)C1)Cn1c-2c(C2CCCCC2)c2ccc(C(=O)NS(=O)(=O)N(C)C)cc21 (racemic)
CC50 [1]: > 10000 nM | concentration at 4 h [2]: 29 nM | EC50 (Hepatitis C virus [3]): 20 nM | concentration at 4 h [4]: 25 nM | concentration at 4 h [5]: 9600 nM | Stability (Liver microsome [6]): 85% | Stability (Liver microsome [7]): 81% | EC50 [8]: > 50000 nM | Papp [9]: 30 ×10⁻⁶ cm/s | concentration at 4 h [10]: 3700 nM | AUC(0-t) at 4 h [11]: 9.8 µM·h | EC50 (Hepatitis C virus [12]): 14 nM | clearance [13]: 14 mL/min/kg | AUC(0-t) at 4 h [14]: 0.139 µM·h | solubility [15]: 93 µg/mL (≈ 150 µM) | EC50 (Hepatitis C virus [16]): 56 nM

COc1ccc2c(c1)C1CC1(C(=O)N1C[C@@H](C)N(C)[C@@H](C)C1)Cn1c-2c(C2CCCCC2)c2ccc(C(=O)NS(=O)(=O)N(C)C)cc21 (mixture of isomers)
CC50 [1]: 8000 nM | concentration at 4 h [2]: 67 nM | EC50 (Hepatitis C virus [3]): 17 nM | concentration at 4 h [4]: 158 nM | concentration at 4 h [5]: 1860 nM | Stability (Liver microsome [6]): 99% | Stability (Liver microsome [7]): 88% | EC50 [8]: > 50000 nM | Papp [9]: 48 ×10⁻⁶ cm/s | concentration at 4 h [10]: 9700 nM | AUC(0-t) at 4 h [11]: 4.29 µM·h | EC50 (Hepatitis C virus [12]): 14 nM | clearance [13]: 29 mL/min/kg | AUC(0-t) at 4 h [14]: 0.516 µM·h | solubility [15]: 34 µg/mL (≈ 51.4 µM) | EC50 (Hepatitis C virus [16]): 46 nM

COc1ccc2c(c1)C1CC1(C(=O)N1C[C@@H](C)N(C(C)=O)[C@@H](C)C1)Cn1c-2c(C2CCCCC2)c2ccc(C(=O)NS(=O)(=O)N(C)C)cc21 (mixture of isomers)
CC50 [1]: > 10000 nM | concentration at 4 h [2]: 9 nM | EC50 (Hepatitis C virus [3]): 38 nM | concentration at 4 h [4]: 14 nM | concentration at 4 h [5]: 126 nM | Stability (Liver microsome [6]): 93% | Stability (Liver microsome [7]): 100% | EC50 [8]: > 50000 nM | Papp [9]: 48 ×10⁻⁶ cm/s | concentration at 4 h [10]: 345 nM | AUC(0-t) at 4 h [11]: 3.84 µM·h | EC50 (Hepatitis C virus [12]): 24 nM | clearance [13]: 37 mL/min/kg | AUC(0-t) at 4 h [14]: 0.277 µM·h | solubility [15]: 17 µg/mL (≈ 24.6 µM) | EC50 (Hepatitis C virus [16]): 35 nM

COc1ccc2c(c1)[C@@H]1C[C@]1(C(=O)N1[C@@H]3CC[C@H]1CN(C)C3)Cn1c-2c(C2CCCCC2)c2ccc(C(=O)NS(=O)(=O)N(C)C)cc21 [BECLABUVIR]
IC50 [17]: 20 nM | CC50 [1]: > 10000 nM | IC50 (CYP2D6): > 40000 nM | IC50 [18]: 3 nM | half-life [19]: 0.883 h | half-life [20]: 11.5 h | IC50 [21]: 12400 nM | IC50 [22]: 4 nM | half-life [23]: 0.383 h | half-life [24]: > 3.33 h | AUC (Rattus norvegicus): 30 µM·h | Cmax [25]: 12100 nM | IC50 (CYP2C19): > 40000 nM | IC50 [26]: 2 nM | Stability (Liver microsome [6]): 99% | Stability (Liver microsome [7]): 90% | IC50 [27]: 5 nM | IC50 [28]: 24500 nM | EC50 [29]: > 14000 nM | IC50 [30]: 10000 nM | IC50 (Cytochrome P450 3A4): > 40000 nM | Papp [9]: 64 ×10⁻⁶ cm/s | inhibition (Homo sapiens): 57% | IC50 [31]: 20 nM | EC50 (Hepatitis C virus [32]): 87 nM | IC50 (CYP2C9): > 40000 nM | half-life [33]: > 3.33 h | EC50 (Coxsackievirus): > 14000 nM | EC50 (Coronaviridae): > 14000 nM | EC50 (Enterovirus): > 14000 nM | EC50 (Enterovirus C): > 14000 nM | EC50 (Hepatitis C virus [12]): 3 nM | bioavailability (in vivo): 66% | fraction unbound [34]: 0.02 | EC50 [35]: > 14000 nM | solubility [36]: 20 µg/mL (≈ 30.3 µM) | activity at 5.56 µM (PXR (NR1I2)): 8.1% | half-life [37]: 8.3 h | EC50 (Hepatitis C virus [38]): 3 nM | IC50 (CYP1A2): > 40000 nM | EC50 [39]: > 14000 nM | Cmax [40]: 3260 nM | solubility [41]: > 1600 µg/mL | solubility [42]: > 1600 µg/mL | solubility [15]: 29 µg/mL (≈ 43.9 µM) | Vd [43]: 2.7 L/kg | AUC(0-inf) [44]: 39.3 µM·h | Tmax [45]: 5.3 h | EC50 (Hepatitis C virus [16]): 28 nM
